# Biological target: C-C chemokine receptor type 2 (Homo sapiens, UniProt P41597)
# Assay: Radioligand Binding Assay: Radioligand binding assays were performed in CHO cells expressing human CCR2B and Galpha±16 coupling protein. All compounds were dissolved in DMSO and assays run at a final DMSO concentration of 0.5% (v/v). [125I]-labeled human MCP-1 was purchased from PerkinElmer. Unlabelled human MCP-1 was purchased from PeproTech.Compounds were serially diluted in DMSO before diluting into assay buffer (25 mM HEPES, pH 7.4, 5 mM MgCl2, 1 mM CaCl2, 0.5% BSA) with cryo preserved CHO cells expressing human CCR2B and the Galpha±16 coupling protein (30x10^3/well) and [125I]-MCP-1 (50 pM). The reaction was incubated at room temperature for 90 minutes before transferring to GF/C filter membrane (PerkinElmer) pre-treated with 0.3% polyethyleneimine for 2 hours at 4 C. The filter membrane was washed six times with ice cold wash buffer (25 mM HEPES, pH 7.4, 5 mM MgCl2, 1 mM CaCl2, 500 mM NaCl, 0.01% (m/v) azide), dried, and sealed in a RLB sample bag (Agilent Technologies).
# Type: cell-based
# Chain of C-C chemokine receptor type 2 (P41597 whole entry): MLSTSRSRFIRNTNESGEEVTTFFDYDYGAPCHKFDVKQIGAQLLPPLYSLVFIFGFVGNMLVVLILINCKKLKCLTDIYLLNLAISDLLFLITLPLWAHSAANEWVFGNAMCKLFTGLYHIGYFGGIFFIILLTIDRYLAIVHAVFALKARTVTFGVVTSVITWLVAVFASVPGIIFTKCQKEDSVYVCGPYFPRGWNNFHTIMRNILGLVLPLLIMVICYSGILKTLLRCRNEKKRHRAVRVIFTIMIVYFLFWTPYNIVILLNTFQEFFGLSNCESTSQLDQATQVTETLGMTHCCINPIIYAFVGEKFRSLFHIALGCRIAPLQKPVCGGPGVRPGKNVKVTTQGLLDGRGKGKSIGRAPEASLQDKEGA
Ki [nM],SMILES,IC50 [nM]
–,CO[C@@H]1COCC[C@@H]1N[C@@H]1C[C@H]2CCC[C@@]2(C(=O)N2C[C@@H]3C[C@H]2CN3c2cc(C(F)(F)F)cc(C(F)(F)F)c2)C1,1520
17,CO[C@@H]1COCC[C@@H]1N[C@@H]1C[C@H]2CCC[C@@]2(C(=O)N2C[C@@H]3C[C@H]2CN3c2ccc(Cl)c(C(F)(F)F)c2)C1,17.6

# — ChEMBL document CHEMBL3638389, “Chemokine receptor antagonists” (2014)
